The subject of experiment [1] is Tumor Cell line. Briefly: In vitro inhibition of 50% cell growth was reported as log of molar concentration for 54 cell lines; Inactive. It is filed as functional, cell-based. To be noted: Homo sapiens.
Experiment [2] concerns Tumor Cell line. As to the kind of experiment: In vitro total growth inhibition for 50 cell lines was reported as log of molar concentration; Inactive. It is filed as functional, cell-based. Conditions: Homo sapiens.
The test system of experiment [3] is Tumor Cell line. As to the kind of experiment: Log of molar concentration leading to 50% cell death was reported; Inactive. It is filed as functional, cell-based. To be noted: Homo sapiens.
Experiment [4] has as its system Tumor Cell line. As to the kind of experiment: In vitro inhibition of 50% cell growth was reported as log of molar concentration for 58 cell lines. The experiment is classed as functional. Conditions: Homo sapiens.
Experiment [5] relates to Tumor Cell line. As to the kind of experiment: In vitro total growth inhibition for 50 cell lines was reported as log of molar concentration. The experiment is classed as functional, Homo sapiens.
Experiment [6] deals with Tumor Cell line. Briefly: Log of molar concentration leading to 50% cell death was reported. It is filed as functional. Conditions: Homo sapiens, read-out: Log LC50 (the source's name) (converted).
The test system of experiment [7] is Tumor Cell line. As to the kind of experiment: In vitro inhibition of 50% cell growth was reported as log of molar concentration for 46 cell lines. It is filed as functional. To be noted: Homo sapiens.
Experiment [8] relates to Tumor Cell line. Briefly: In vitro inhibition of 50% cell growth was reported as log of molar concentration for 57 cell lines. It is filed as functional. Conditions: Homo sapiens.
Experiment [9] deals with Tumor Cell line. As to the kind of experiment: In vitro inhibition of 50% cell growth was reported as log of molar concentration for 56 cell lines. The experiment is classed as functional. Conditions: Homo sapiens.
The test system of experiment [10] is Tumor Cell line. As to the kind of experiment: Log of molar concentration leading to 50% cell death was reported for 50 cell lines. To be noted: Homo sapiens, read-out: Log LC50 (the source's name) (converted). The experiment is classed as functional.
Experiment [11] deals with Tumor Cell line. As to the kind of experiment: In vitro inhibition of 50% cell growth was reported as log of molar concentration for 50 cell lines. It is filed as functional. Conditions: Homo sapiens.
For experiment [12], the system named is Tumor Cell line. Briefly: In vitro inhibition of 50% cell growth was reported as log of molar concentration for 54 cell lines. It is filed as functional. Conditions: Homo sapiens.

Activity calls are given as the source filed them. The calls are words filed in the database; no cut-off is given here.

As to `O=C(Nc1ccc2scnc2c1)c1cc2c(cc1Cl)Sc1nccn1S2(=O)=O`, the IA entry in [1], in experiment [2] and in experiment [3] was “inactive” throughout.

As a reminder, the GI50 is the concentration giving 50% growth inhibition. A low value points to greater sensitivity of the cells. The compound `O=C(Nc1ccccn1)c1cc2c(cc1Cl)Sc1nccn1S2(=O)=O` had a GI50 in [4] of 70.8 µM. In experiment [5], the “Log GTI” value is recorded as -4.02. For the same compound, in experiment [6], the CC50 was 58.9 µM.

The compound `O=c1c2ccccc2nc(-c2cc3c(cc2Cl)Sc2nccn2S3(=O)=O)n1-c1ccccc1` showed a GI50 in experiment [7] of 89.1 µM. Further, the “Log GTI” value in experiment [5] is listed as -4.07. Moreover, the CC50 in experiment [6] was 85.1 µM.

In the case of `O=C(Oc1c(-c2ccccc2)oc2ccccc2c1=O)c1cc2c(cc1Cl)Sc1nccn1S2(=O)=O`, the IA result in experiment [1], in [2] and in [3] was “inactive” each time.

As to `Cc1ccc2cc(NC(=O)c3cc4c(cc3Cl)Sc3nccn3S4(=O)=O)ccc2n1`, the GI50 in [8] was 33.9 µM. For the same compound, the “Log GTI” value in experiment [5] was -4.06. Also, the CC50 in experiment [6] was 100 µM.

Take `O=C(c1cc2c(cc1Cl)Sc1nccn1S2(=O)=O)N1c2ccccc2C=Cc2ccccc21`: the IA result in experiment [1], in [2] and in [3] was “inactive” throughout.

The compound `O=C(Nc1cccc2cnccc12)c1cc2c(cc1Cl)Sc1nccn1S2(=O)=O` showed a GI50 in experiment [9] of 39.8 µM. Moreover, the “Log GTI” value in experiment [5] is -4.04. In addition, the CC50 in experiment [10] was 100 µM.

With `Cc1ccnc(NC(=O)c2cc3c(cc2Cl)Sc2nccn2S3(=O)=O)c1`, the IA entry in [1], in experiment [2] and in [3] was “inactive” in each case.

Compound `O=C(Nc1ccc2cc3ccccc3cc2c1)c1cc2c(cc1Cl)Sc1nccn1S2(=O)=O` had a GI50 in experiment [11] of 87.1 µM. Also, in [5], the “Log GTI” value is given as -4.52.

As to `O=C(Nc1ccccc1C(=O)Nc1ccccc1)c1cc2c(cc1Cl)Sc1nccn1S2(=O)=O`, the IA result in experiment [1], in experiment [2] and in experiment [3] was “inactive” each time.

In turn, `O=C1c2ccccc2/N=C(/c2cc3c(cc2Cl)Sc2nccn2S3(=O)=O)OS(=O)(=O)N1c1ccccc1` had a 50% growth inhibitory concentration (GI50) in [12] of 81.3 µM. For the same compound, the “Log GTI” value in experiment [5] is -4.04. Further, the CC50 in experiment [6] is 91.2 µM.

Take `Cc1cccnc1NC(=O)c1cc2c(cc1Cl)Sc1nccn1S2(=O)=O`: the IA result in experiment [1], in experiment [2] and in experiment [3] was “inactive” throughout.

Source of the values: ChEMBL document CHEMBL1135808, “A new type of mixed anhydride and its applications to the synthesis of 7-substituted 8-chloro-5,5-dioxoimidazo[1,2-b][1,4,2]benzodithiazines with in vitro antitumor activity” (2002).
